Measured values: patent publication US11524944B2, “2-phenylpyrimidine-4-carboxamides as AHR inhibitors” (Bayer Aktiengesellschaft, priority 2017, dated 2022)
Several values for one entry are separate records, joined by “and”; a condition that tells them apart may be missing. Equal values may be shown once.

Legend:
Human AhR = target: T1, Human AhR (Homo sapiens, UniProt P35869); experiment: Transactivation assay in human cell line (in vitro assay 1): antagonism; type: cell-based; details: U87 glioblastoma cells, AHR inducible firefly luciferase reporter (DRE), 150 μM kynurenic acid, 20 hours
T1 construct: host or cells: U87 glioblastoma cells, stably transfected with a DRE firefly luciferase reporter and a constitutive renilla reporter
T1 sequence (P35869 11-848): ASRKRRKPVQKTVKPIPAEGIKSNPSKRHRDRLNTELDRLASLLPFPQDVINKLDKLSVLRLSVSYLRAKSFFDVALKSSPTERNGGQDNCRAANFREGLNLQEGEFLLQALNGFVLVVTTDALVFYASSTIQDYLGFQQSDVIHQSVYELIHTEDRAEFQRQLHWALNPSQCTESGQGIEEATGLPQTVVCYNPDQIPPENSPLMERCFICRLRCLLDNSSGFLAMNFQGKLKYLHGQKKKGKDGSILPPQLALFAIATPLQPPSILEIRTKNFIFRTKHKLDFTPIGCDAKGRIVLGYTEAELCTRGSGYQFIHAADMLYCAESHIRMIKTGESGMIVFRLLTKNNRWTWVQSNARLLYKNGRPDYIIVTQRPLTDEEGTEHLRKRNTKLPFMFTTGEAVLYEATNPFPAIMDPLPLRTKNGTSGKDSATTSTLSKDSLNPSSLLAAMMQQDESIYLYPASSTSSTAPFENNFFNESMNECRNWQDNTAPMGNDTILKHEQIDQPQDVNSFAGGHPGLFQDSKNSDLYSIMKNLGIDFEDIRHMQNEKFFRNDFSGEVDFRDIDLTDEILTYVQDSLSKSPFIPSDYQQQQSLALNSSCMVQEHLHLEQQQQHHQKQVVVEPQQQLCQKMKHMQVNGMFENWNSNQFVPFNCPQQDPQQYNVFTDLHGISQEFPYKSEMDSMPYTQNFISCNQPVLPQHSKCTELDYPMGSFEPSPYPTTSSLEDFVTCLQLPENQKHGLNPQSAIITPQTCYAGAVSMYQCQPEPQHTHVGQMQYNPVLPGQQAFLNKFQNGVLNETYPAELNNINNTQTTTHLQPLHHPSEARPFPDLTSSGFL
Description: (§1) Examples were tested in selected biological assays one or more times. When tested more than once, data are reported as either average values or as median values, wherein • the average value, also referred to as the arithmetic mean value, represents the sum of the values obtained divided by the number of times tested, and • the median value represents the middle number of the group of values when ranked in ascending or descending order. If the number of values in the data set is odd, the median is the middle value. If the number of values in the data set is even, the median is the arithmetic mean of the two middle values.
Transactivation Assay in Human Cell Line (In Vitro Assay 1)
(§2) Transactivation assay was carried out in U87 glioblastoma cells (ATCC) endogenously expressing AHR. In addition the cells were stably transfected with an AHR inducible firefly luciferase reporter gene construct that carried AHR-binding sites (DRE) in its promoter and a renilla reporter gene construct with constitutively active promoter. Kynurenic acid is an endogenous AHR activating ligand and was used to prestimulate test cells prior to testing the antagonistic properties of compounds.
In Vitro Assay 1: Antagonism in Human Cell Line
Firefly luciferase and Renilla activity was determined by the DualGlo Luciferase Assay System (Promega, #2920). Renilla activity was used to assess toxic effects of compounds.

Mouse AhR = target: T2, Mouse AhR (Mus musculus, UniProt P30561); experiment: Transactivation assay in mouse cell line (in vitro assay 2): antagonism; type: cell-based; details: Hepa 1c1c7 cells, AHR inducible firefly luciferase reporter (DRE), 200 μM kynurenic acid, 20 hours
T2 sequence (P30561 1-848 P471L/N533S/M589L): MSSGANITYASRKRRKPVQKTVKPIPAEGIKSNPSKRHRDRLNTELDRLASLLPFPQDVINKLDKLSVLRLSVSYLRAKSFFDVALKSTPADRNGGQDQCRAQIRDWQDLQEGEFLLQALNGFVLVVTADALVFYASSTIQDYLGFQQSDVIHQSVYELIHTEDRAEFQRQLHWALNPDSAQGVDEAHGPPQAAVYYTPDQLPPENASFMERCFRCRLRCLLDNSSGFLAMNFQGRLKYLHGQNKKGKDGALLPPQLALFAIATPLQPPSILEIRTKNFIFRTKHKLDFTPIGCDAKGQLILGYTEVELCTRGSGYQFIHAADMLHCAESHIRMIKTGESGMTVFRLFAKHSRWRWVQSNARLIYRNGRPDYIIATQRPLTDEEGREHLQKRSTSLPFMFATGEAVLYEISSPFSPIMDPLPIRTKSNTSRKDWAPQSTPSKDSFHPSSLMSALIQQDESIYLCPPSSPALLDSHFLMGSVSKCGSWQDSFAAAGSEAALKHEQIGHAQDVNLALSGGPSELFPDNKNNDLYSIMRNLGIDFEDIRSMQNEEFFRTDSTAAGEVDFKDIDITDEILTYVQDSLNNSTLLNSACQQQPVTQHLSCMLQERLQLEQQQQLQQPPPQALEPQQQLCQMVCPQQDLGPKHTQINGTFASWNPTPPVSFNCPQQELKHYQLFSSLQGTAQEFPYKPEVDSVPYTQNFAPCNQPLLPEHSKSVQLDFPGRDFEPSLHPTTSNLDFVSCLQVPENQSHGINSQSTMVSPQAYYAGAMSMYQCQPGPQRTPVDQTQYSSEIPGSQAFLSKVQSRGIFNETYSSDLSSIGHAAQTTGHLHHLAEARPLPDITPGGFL
Description: as §1
Transactivation Assay in Mouse Cell Line (In Vitro Assay 2)
as §2, with “Hepa 1c1c7” for “U87 glioblastoma”, “(ATCC #CRL-2026)” for “(ATCC)”, “its” for “its promoter and a renilla reporter gene construct with constitutively active”
In Vitro Assay 2: Antagonism in Mouse Cell Line
Firefly luciferase activity was determined by the SteadyGlo Luciferase Assay System (Promega, #E2550).

Structure (SMILES) | IC50 (Human AhR) [µM] | IC50 (Mouse AhR)
C[C@@H](CO)NC(=O)c1cc(-c2ccc(OC(F)(F)F)cc2)nc(-c2ccc(OC(F)(F)F)cc2)n1 [Example 12, N-[(2S)-1-hydroxypropan-2-yl]-2,6-bis[4-(trifluoromethoxy)phenyl]pyrimidine-4-carboxamide] | > 20 | > 20 µM and 17.9 µM
CC(C)(O)CNC(=O)c1cc(-c2ccc(OC(F)(F)F)cc2)nc(-c2ccc(Cl)cc2)n1 [Example 14, 2-(4-chlorophenyl)-N-(2-hydroxy-2-methylpropyl)-6-[4-(trifluoromethoxy)phenyl]pyrimidine-4-carboxamide] | 0.234 | 0.148 µM
COc1ccc(-c2nc(C(=O)NCC(C)(C)O)cc(-c3ccc(OC(F)(F)F)cc3)n2)cc1 [Example 15, N-(2-hydroxy-2-methylpropyl)-2-(4-methoxyphenyl)-6-[4-(trifluoromethoxy)phenyl]pyrimidine-4-carboxamide] | 0.39 | > 20 µM
C[C@@H](CO)NC(=O)c1cc(-c2ccc(OC(F)(F)F)cc2)nc(-c2ccc(F)cc2)n1 [Example 28, 2-(4-fluorophenyl)-N-[(2S)-1-hydroxypropan-2-yl]-6-[4-(trifluoromethoxy)phenyl]pyrimidine-4-carboxamide] | 0.22 | 0.108 µM
C[C@@H](CO)NC(=O)c1cc(-c2ccc(OC(F)(F)F)cc2)nc(-c2ccc(Cl)cc2)n1 [Example 29, 2-(4-chlorophenyl)-N-[(2S)-1-hydroxypropan-2-yl]-6-[4-(trifluoromethoxy)phenyl]pyrimidine-4-carboxamide] | 0.525 | 0.697 µM
Cc1cc(-c2nc(C(=O)N[C@@H](C)CO)cc(-c3ccc(OC(F)(F)F)cc3)n2)ccc1F [Example 32, 2-(4-fluoro-3-methylphenyl)-N-[(2S)-1-hydroxypropan-2-yl]-6-[4-(trifluoromethoxy)phenyl]pyrimidine-4-carboxamide] | 0.167 | 0.384 µM
C[C@@H](CO)NC(=O)c1cc(-c2ccc(OC(F)(F)F)cc2)nc(-c2ccc(C(F)F)cc2)n1 [Example 42, 2-[4-(difluoromethyl)phenyl]-N-[(2S)-1-hydroxypropan-2-yl]-6-[4-(trifluoromethoxy)phenyl]pyrimidine-4-carboxamide] | 1.1 | 1.1 µM
CC(C)(O)CNC(=O)c1cc(-c2ccc(Cl)cc2)nc(-c2ccc(C(F)F)cc2)n1 [Example 61, 6-(4-chlorophenyl)-2-[4-(difluoromethyl)phenyl]-N-(2-hydroxy-2-methylpropyl)pyrimidine-4-carboxamide] | > 20 | 7.12 µM
COc1ccc(-c2nc(C(=O)N[C@@H](C)CO)cc(-c3ccc(Cl)cc3)n2)cc1 [Example 63, 6-(4-chlorophenyl)-N-[(2S)-1-hydroxypropan-2-yl]-2-(4-methoxyphenyl)pyrimidine-4-carboxamide] | 0.392 | 5.15 µM

These reach a lower IC50 (Human AhR). Values come first.

IC50 (Human AhR) [µM] | IC50 (Mouse AhR) | Structure (SMILES)
0.0353 | 0.0238 µM | C[C@@H](CO)NC(=O)c1cc(-c2cccc(F)c2)nc(-c2ccc(Cl)cc2)n1 [Example 10, 2-(4-Chlorophenyl)-6-(3-fluorophenyl)-N-[(2S)-1-hydroxypropan-2-yl]pyrimidine-4-carboxamide]
0.0411 | 0.0115 µM | C[C@@H](CO)NC(=O)c1cc(-c2cccc(F)c2)nc(-c2ccc(OC(F)(F)F)cc2)n1 [Example 11, 6-(3-Fluorophenyl)-N-[(2S)-1-hydroxypropan-2-yl]-2-[4-(trifluoromethoxy)phenyl]pyrimidine-4-carboxamide]
0.0114 | 0.125 µM | CC(C)(O)CNC(=O)c1cc(-c2ccc(OC(F)(F)F)cc2)nc(-c2cccc(C#N)c2)n1 [Example 20, 2-(3-cyanophenyl)-N-(2-hydroxy-2-methylpropyl)-6-[4-(trifluoromethoxy)phenyl]pyrimidine-4-carboxamide]
0.0264 | 0.0469 µM | Cc1cccc(-c2nc(C(=O)N[C@@H](C)CO)cc(-c3ccc(OC(F)(F)F)cc3)n2)c1 [Example 31, N-[(2S)-1-hydroxypropan-2-yl]-2-(3-methylphenyl)-6-[4-(trifluoromethoxy)phenyl]pyrimidine-4-carboxamide]
0.0984 | 0.397 µM | C[C@@H](CO)NC(=O)c1cc(-c2ccc(OC(F)(F)F)cc2)nc(-c2ccc(F)c(Cl)c2)n1 [Example 33, 2-(3-chloro-4-fluorophenyl)-N-[(2S)-1-hydroxypropan-2-yl]-6-[4-(trifluoromethoxy)phenyl]pyrimidine-4-carboxamide]
0.0184 | 0.18 µM | C[C@@H](CO)NC(=O)c1cc(-c2ccc(OC(F)(F)F)cc2)nc(-c2cccc(C#N)c2)n1 [Example 36, 2-(3-cyanophenyl)-N-[(2S)-1-hydroxypropan-2-yl]-6-[4-(trifluoromethoxy)phenyl]pyrimidine-4-carboxamide]
0.0295 | 0.191 µM | Cc1cc(F)cc(-c2nc(C(=O)N[C@@H](C)CO)cc(-c3ccc(OC(F)(F)F)cc3)n2)c1 [Example 41, 2-(3-fluoro-5-methylphenyl)-N-[(2S)-1-hydroxypropan-2-yl]-6-[4-(trifluoromethoxy)phenyl]pyrimidine-4-carboxamide]
0.0244 | 0.161 µM | CC(C)(O)CNC(=O)c1cc(-c2ccc(Cl)cc2)nc(-c2ccc(F)cc2)n1 [Example 45, 6-(4-chlorophenyl)-2-(4-fluorophenyl)-N-(2-hydroxy-2-methylpropyl)pyrimidine-4-carboxamide]
0.101 | 3.09 µM | CC(C)(O)CNC(=O)c1cc(-c2ccc(Cl)cc2)nc(-c2cc(Cl)cc(Cl)c2)n1 [Example 51, 6-(4-chlorophenyl)-2-(3,5-dichlorophenyl)-N-(2-hydroxy-2-methylpropyl)pyrimidine-4-carboxamide]
0.0072 | 0.0526 µM | Cc1cccc(-c2nc(C(=O)N[C@@H](C)CO)cc(-c3ccc(Cl)cc3)n2)c1 [Example 64, 6-(4-chlorophenyl)-N-[(2S)-1-hydroxypropan-2-yl]-2-(3-methylphenyl)pyrimidine-4-carboxamide]
0.0485 | 0.134 µM | Cc1cc(-c2nc(C(=O)N[C@@H](C)CO)cc(-c3ccc(Cl)cc3)n2)ccc1F [Example 65, 6-(4-chlorophenyl)-2-(4-fluoro-3-methylphenyl)-N-[(2S)-1-hydroxypropan-2-yl]pyrimidine-4-carboxamide]
